From patent US12552792B2, “Solid forms of an FGFR inhibitor and processes for preparing the same” (Incyte Corporation, priority 2018, dated 2026) come the findings set out here.

Common to all, as to format: physicochemical
Data set [1] can be described thus: Solubility measurement of Form I in solvent systems (HPLC). Particulars: organic solvent or mixture, thermodynamic from solid. As for the experimental part:
Form I waw found to be completely soluble (>50 mg/mL) in many solvents including DMF (50° C.), DCM, chloroform, DMSO, and DCM/MeOH (9/1) at 25° C. and 50° C.

Assay in data set [2]: as above
To be noted: for solubility at 24 h: organic solvent or mixture, thermodynamic from solid, stirred 24 h, HPLC; for solubility (in words): 25° C.

A short description of data set [3]: Conversion of Form II to Form I in different solvents. From the text: The Form II was converted to Form I in acetonitrile, ethanol and IPA respectively as described in Table 13.

In brackets after ≈: the same amount, converted by molar mass. Where two headings read alike, the source gives them in different places.

`CCN1C(=O)N(c2c(F)c(OC)cc(OC)c2F)Cc2cnc3[nH]c(CN4CCOCC4)cc3c21` [Form III]: the solubility at 24 h was 5690 µg/mL (≈ 11.7 mM) in data set [1] (50 °C, solvent 1,4-Dioxane, stirred 24 h, HPLC, read-out: Solubility at 50° C.) and 2230 µg/mL (≈ 4.57 mM) in data set [2] (25 °C, solvent 1,4-Dioxane, read-out: Solubility at 25° C.).

As for `CCN1C(=O)N(c2c(F)c(OC)cc(OC)c2F)Cc2cnc3[nH]c(CN4CCOCC4)cc3c21` [Form II], the “Conversion result (solid form)” value in data set [3] (18 mg Form II in EtOH (0.7 mL)), in data set [3] (18 mg Form II in IPA (0.7 mL)) and in data set [3] (18 mg Form II in MeCN (0.7 mL)) was “Form I” throughout. In data set [2] (25 °C, solvent Dichloromethane, read-out: Solubility at 25° C.), the solubility at 24 h is more than 50000 µg/mL.

For `CCN1C(=O)N(c2c(F)c(OC)cc(OC)c2F)Cc2cnc3[nH]c(CN4CCOCC4)cc3c21` [Form IX], the solubility at 24 h in data set [1] (25 °C, solvent MTBE, stirred 24 h, HPLC, read-out: Solubility at 25° C.) worked out at 50 µg/mL (≈ 0.103 mM).

For the compound `CCN1C(=O)N(c2c(F)c(OC)cc(OC)c2F)Cc2cnc3[nH]c(CN4CCOCC4)cc3c21` [Form I], the solubility at 24 h in data set [1] (25 °C, solvent 1-Propanol, stirred 24 h, HPLC, read-out: Solubility at 25° C.) was 1160 µg/mL (≈ 2.38 mM); in data set [1] (25 °C, solvent DCM/MeOH (9/1), stirred 24 h, HPLC, read-out: Solubility at 25° C.) it was more than 50000 µg/mL; in data set [1] (25 °C, solvent IPAc, stirred 24 h, HPLC, read-out: Solubility at 25° C.), 880 µg/mL (≈ 1.81 mM); in data set [1] (25 °C, solvent Toluene, stirred 24 h, HPLC, read-out: Solubility at 25° C.) it was 450 µg/mL (≈ 0.923 mM); in data set [1] (50 °C, solvent 1-Propanol, stirred 24 h, HPLC, read-out: Solubility at 50° C.), 2500 µg/mL (≈ 5.13 mM); in data set [1] (50 °C, solvent Chloroform, stirred 24 h, HPLC, read-out: Solubility at 50° C.), more than 50000 µg/mL. For the same compound, the solubility at 24 h in data set [1] (50 °C, solvent Dichloromethane, stirred 24 h, HPLC, read-out: Solubility at 50° C.) is more than 50000 µg/mL; in data set [1] (50 °C, solvent EtOAc, stirred 24 h, HPLC, read-out: Solubility at 50° C.), 2260 µg/mL (≈ 4.64 mM); in data set [1] (50 °C, solvent MeCN, stirred 24 h, HPLC, read-out: Solubility at 50° C.), 8390 µg/mL (≈ 17.2 mM); in data set [1] (50 °C, solvent Methanol, stirred 24 h, HPLC, read-out: Solubility at 50° C.), 2050 µg/mL (≈ 4.21 mM); in data set [1] (DMF (50° C.), DCM, chloroform, DMSO, DCM/MeOH (9/1) at 25° C. and 50° C., read-out: completely soluble), more than 50000 µg/mL; in data set [2] (25 °C, solvent 2-Methoxyethanol, read-out: Solubility at 25° C.), 15300 µg/mL (≈ 31.3 mM). Further, the solubility at 24 h was more than 50000 µg/mL in data set [2] (25 °C, solvent Chloroform, read-out: Solubility at 25° C.); 42000 µg/mL (≈ 86.1 mM) in data set [2] (25 °C, solvent DMF, read-out: Solubility at 25° C.); more than 50000 µg/mL in data set [2] (25 °C, solvent DMSO, read-out: Solubility at 25° C.); 970 µg/mL (≈ 1.99 mM) in data set [2] (25 °C, solvent EtOH, read-out: Solubility at 25° C.); 5350 µg/mL (≈ 11 mM) in data set [2] (25 °C, solvent IPA/water (4/1), read-out: Solubility at 25° C.); 560 µg/mL (≈ 1.15 mM) in data set [2] (25 °C, solvent IPA, read-out: Solubility at 25° C.). Besides, the solubility at 24 h amounted to 460 µg/mL (≈ 0.944 mM) in data set [2] (25 °C, solvent Isobutyl acetate, read-out: Solubility at 25° C.); 1200 µg/mL (≈ 2.46 mM) in data set [2] (25 °C, solvent MEK, read-out: Solubility at 25° C.); 5390 µg/mL (≈ 11.1 mM) in data set [2] (25 °C, solvent MeCN, read-out: Solubility at 25° C.); 4110 µg/mL (≈ 8.43 mM) in data set [2] (25 °C, solvent THF, read-out: Solubility at 25° C.); 820 µg/mL (≈ 1.68 mM) in data set [2] (25 °C, solvent n-BuOH, read-out: Solubility at 25° C.); 20500 µg/mL (≈ 42 mM) in data set [2] (50 °C, solvent 2-Methoxyethanol, read-out: Solubility at 50° C.). Also, the solubility at 24 h in data set [2] (50 °C, solvent Acetone, read-out: Solubility at 50° C.) is 6670 µg/mL (≈ 13.7 mM); in data set [2] (50 °C, solvent DCM/MeOH (9/1), read-out: Solubility at 50° C.) it was more than 50000 µg/mL; in data set [2] (50 °C, solvent DMF, read-out: Solubility at 50° C.), more than 50000 µg/mL; in data set [2] (50 °C, solvent DMSO, read-out: Solubility at 50° C.), more than 50000 µg/mL; in data set [2] (50 °C, solvent EtOH, read-out: Solubility at 50° C.), 2730 µg/mL (≈ 5.6 mM); in data set [2] (50 °C, solvent Ethyl formate, read-out: Solubility at 50° C.) it was 15300 µg/mL (≈ 31.4 mM). In addition, the solubility at 24 h in data set [2] (50 °C, solvent IPA/water (4/1), read-out: Solubility at 50° C.) is 8770 µg/mL (≈ 18 mM); in data set [2] (50 °C, solvent IPA, read-out: Solubility at 50° C.) it was 1370 µg/mL (≈ 2.81 mM); in data set [2] (50 °C, solvent IPAc, read-out: Solubility at 50° C.) it was 1330 µg/mL (≈ 2.73 mM); in data set [2] (50 °C, solvent Isobutyl acetate, read-out: Solubility at 50° C.), 580 µg/mL (≈ 1.19 mM); in data set [2] (50 °C, solvent MEK, read-out: Solubility at 50° C.), 3220 µg/mL (≈ 6.61 mM); in data set [2] (50 °C, solvent MIBK, read-out: Solubility at 50° C.) it was 1120 µg/mL (≈ 2.3 mM). For the same compound, the solubility at 24 h in data set [2] (50 °C, solvent MTBE, read-out: Solubility at 50° C.) turned out to be 190 µg/mL (≈ 0.39 mM); in data set [2] (50 °C, solvent Toluene, read-out: Solubility at 50° C.) it was 820 µg/mL (≈ 1.68 mM); in data set [2] (50 °C, solvent n-BuOH, read-out: Solubility at 50° C.) it was 1650 µg/mL (≈ 3.38 mM). For the same compound, the solubility in data set [1] (DMSO, 25° C., slurry obtained after stirring the clear solution of 60 mg Form I in 1 mL DMSO, read-out: solubility of the saturated solution) stood at 6130 µg/mL (≈ 12.6 mM). Also, the “solubility (in words)” value in data set [2] (MTBE, toluene, IPAc, methanol, and IPA) is “sparingly soluble”; in data set [2] (water, heptane and hexane) it was “almost insoluble”.

On to `CCN1C(=O)N(c2c(F)c(OC)cc(OC)c2F)Cc2cnc3[nH]c(CN4CCOCC4)cc3c21` [Form VIII], for which the solubility at 24 h in data set [1] (25 °C, solvent Acetone, stirred 24 h, HPLC, read-out: Solubility at 25° C.) is 2680 µg/mL (≈ 5.5 mM).

Regarding `CCN1C(=O)N(c2c(F)c(OC)cc(OC)c2F)Cc2cnc3[nH]c(CN4CCOCC4)cc3c21` [Form VII], the solubility at 24 h in data set [1] (25 °C, solvent MIBK, stirred 24 h, HPLC, read-out: Solubility at 25° C.) was found to be 430 µg/mL (≈ 0.882 mM).

On to `CCN1C(=O)N(c2c(F)c(OC)cc(OC)c2F)Cc2cnc3[nH]c(CN4CCOCC4)cc3c21` [Form VI], for which the solubility at 24 h in data set [2] (25 °C, solvent Methanol, read-out: Solubility at 25° C.) is 640 µg/mL (≈ 1.31 mM).

For the compound `CCN1C(=O)N(c2c(F)c(OC)cc(OC)c2F)Cc2cnc3[nH]c(CN4CCOCC4)cc3c21` [Form XIII], the solubility at 24 h in data set [2] (50 °C, solvent THF, read-out: Solubility at 50° C.) stood at 10000 µg/mL (≈ 20.6 mM).

Take `CCN1C(=O)N(c2c(F)c(OC)cc(OC)c2F)Cc2cnc3[nH]c(CN4CCOCC4)cc3c21` [Form XI]: the solubility at 24 h in data set [1] (25 °C, solvent Ethyl formate, stirred 24 h, HPLC, read-out: Solubility at 25° C.) came out at 4160 µg/mL (≈ 8.53 mM).

With `CCN1C(=O)N(c2c(F)c(OC)cc(OC)c2F)Cc2cnc3[nH]c(CN4CCOCC4)cc3c21` [Form X], in data set [2] (25 °C, solvent EtOAc, read-out: Solubility at 25° C.), the solubility at 24 h came to 700 µg/mL (≈ 1.44 mM).
